The values that follow come from US9492471B2, “Methods of treating a disease or disorder associated with Bruton'S Tyrosine Kinase” (Celgene Avilomics Research, Inc., priority 2013, dated 2016).

Like-named read-outs stand apart in the source and are kept apart here.

What all share (test): HotSpot kinase profiling
What all share (type): biochemical

For one experiment, the target named is T1, TYK2 (Homo sapiens, UniProt P29597).
T1 construct: purchased Reaction Biology Corp
An outline of the steps:
(§1)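 P81 filtration radiometric readout; 2 h incubation at room temperature; 0.1% phosphoric acid wash; DMSO negative control; % inhibition, mean of replicate runs.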

For another experiment, the target named is T2, CAMK2b (Homo sapiens, UniProt Q13554).
T2 construct: purchased Reaction Biology Corp
The method, boiled down: as §1

The target in a further experiment is T3, CDK2/cyclin E (Homo sapiens, UniProt P24941).
T3 construct: purchased Reaction Biology Corp
The method, boiled down:
as §1

The next experiment concerns the target T4, LCK2/ICK (Homo sapiens, UniProt Q9UPZ9).
T4 construct: purchased Reaction Biology Corp
T4 sequence (Q9UPZ9 1-632): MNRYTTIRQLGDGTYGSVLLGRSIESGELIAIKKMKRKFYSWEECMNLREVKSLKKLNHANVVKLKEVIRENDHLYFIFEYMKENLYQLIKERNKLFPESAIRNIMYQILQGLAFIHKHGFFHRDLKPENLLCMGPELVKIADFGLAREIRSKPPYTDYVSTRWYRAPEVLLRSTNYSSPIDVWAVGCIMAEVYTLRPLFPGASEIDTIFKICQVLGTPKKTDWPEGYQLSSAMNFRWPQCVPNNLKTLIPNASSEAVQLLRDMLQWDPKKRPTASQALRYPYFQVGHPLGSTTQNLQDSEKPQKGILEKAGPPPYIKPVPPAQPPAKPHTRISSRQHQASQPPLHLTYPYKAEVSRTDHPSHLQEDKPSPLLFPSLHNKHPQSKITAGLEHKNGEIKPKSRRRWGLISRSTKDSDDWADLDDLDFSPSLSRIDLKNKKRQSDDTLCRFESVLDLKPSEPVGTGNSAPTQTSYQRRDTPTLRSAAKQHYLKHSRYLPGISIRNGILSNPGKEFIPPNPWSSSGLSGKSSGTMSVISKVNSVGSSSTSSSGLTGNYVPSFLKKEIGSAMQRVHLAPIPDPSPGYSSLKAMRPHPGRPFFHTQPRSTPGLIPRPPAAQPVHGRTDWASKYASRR
The method, boiled down: as §1

The next experiment deals with T5, ERK5/MAPK7 (Homo sapiens, UniProt Q13164).
T5 construct: purchased Reaction Biology Corp
An outline of the steps: as §1

The next experiment has as its target T6, EPHB3 (Homo sapiens, UniProt P54753).
T6 construct: purchased Reaction Biology Corp
T6 sequence (P54753 34-998): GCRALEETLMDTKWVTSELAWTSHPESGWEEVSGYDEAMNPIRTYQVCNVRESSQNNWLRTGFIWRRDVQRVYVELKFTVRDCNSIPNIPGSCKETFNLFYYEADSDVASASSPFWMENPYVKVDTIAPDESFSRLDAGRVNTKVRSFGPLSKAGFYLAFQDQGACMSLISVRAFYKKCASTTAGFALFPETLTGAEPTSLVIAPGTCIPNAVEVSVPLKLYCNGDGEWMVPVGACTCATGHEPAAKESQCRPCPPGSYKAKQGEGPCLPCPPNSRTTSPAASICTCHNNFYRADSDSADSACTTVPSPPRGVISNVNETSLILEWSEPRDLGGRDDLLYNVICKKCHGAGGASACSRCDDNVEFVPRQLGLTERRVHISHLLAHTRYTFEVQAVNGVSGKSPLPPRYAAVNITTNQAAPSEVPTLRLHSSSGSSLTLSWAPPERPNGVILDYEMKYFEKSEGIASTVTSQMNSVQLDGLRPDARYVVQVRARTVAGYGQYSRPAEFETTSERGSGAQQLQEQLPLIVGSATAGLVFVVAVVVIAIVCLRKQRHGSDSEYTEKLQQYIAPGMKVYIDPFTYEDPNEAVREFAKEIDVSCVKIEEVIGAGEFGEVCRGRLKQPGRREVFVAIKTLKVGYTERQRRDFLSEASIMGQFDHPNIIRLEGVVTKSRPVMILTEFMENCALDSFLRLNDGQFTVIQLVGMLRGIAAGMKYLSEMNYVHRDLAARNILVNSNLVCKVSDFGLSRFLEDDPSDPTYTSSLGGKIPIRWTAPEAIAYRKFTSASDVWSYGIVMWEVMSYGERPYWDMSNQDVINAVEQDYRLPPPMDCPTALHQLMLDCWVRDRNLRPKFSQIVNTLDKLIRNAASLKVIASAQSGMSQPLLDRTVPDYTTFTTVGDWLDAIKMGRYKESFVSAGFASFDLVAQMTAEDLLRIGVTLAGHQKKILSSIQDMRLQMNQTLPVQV
The method, boiled down: as §1

The mark [1] stands for this setting: read-out: % Enzyme Activity (relative to DMSO controls) Run 1.
[2] abbreviates: read-out: % Enzyme Activity (relative to DMSO controls) Run 2.

T1 sequence (P29597 whole entry): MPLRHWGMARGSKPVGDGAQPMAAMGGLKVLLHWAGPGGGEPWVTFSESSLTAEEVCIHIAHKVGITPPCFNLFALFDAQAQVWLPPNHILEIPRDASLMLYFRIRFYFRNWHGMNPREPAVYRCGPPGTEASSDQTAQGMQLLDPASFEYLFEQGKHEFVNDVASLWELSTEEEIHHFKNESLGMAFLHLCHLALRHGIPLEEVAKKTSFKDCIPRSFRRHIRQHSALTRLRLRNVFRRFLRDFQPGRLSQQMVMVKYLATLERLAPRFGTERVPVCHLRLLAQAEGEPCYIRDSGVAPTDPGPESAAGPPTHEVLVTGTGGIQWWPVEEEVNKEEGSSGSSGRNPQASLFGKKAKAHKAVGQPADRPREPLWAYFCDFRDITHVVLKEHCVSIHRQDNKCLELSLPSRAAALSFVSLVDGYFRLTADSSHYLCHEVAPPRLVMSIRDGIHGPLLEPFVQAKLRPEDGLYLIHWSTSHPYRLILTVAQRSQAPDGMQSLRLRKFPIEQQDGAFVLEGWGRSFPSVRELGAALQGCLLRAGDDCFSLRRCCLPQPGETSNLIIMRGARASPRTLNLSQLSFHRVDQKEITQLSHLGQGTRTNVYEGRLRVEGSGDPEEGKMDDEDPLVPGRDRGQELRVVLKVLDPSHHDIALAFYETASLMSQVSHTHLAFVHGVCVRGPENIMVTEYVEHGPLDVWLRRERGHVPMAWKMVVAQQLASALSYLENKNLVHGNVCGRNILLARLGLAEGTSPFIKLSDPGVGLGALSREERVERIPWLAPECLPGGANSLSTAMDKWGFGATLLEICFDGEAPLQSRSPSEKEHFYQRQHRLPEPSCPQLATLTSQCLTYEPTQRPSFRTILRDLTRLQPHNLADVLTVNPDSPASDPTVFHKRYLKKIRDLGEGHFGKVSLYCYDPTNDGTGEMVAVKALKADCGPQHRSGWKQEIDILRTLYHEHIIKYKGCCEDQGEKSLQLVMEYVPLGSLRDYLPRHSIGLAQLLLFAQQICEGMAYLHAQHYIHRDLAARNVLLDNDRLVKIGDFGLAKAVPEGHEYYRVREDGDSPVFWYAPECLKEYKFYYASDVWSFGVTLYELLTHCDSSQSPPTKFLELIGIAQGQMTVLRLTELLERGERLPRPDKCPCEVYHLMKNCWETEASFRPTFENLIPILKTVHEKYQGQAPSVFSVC
T5 sequence (Q13164 whole entry): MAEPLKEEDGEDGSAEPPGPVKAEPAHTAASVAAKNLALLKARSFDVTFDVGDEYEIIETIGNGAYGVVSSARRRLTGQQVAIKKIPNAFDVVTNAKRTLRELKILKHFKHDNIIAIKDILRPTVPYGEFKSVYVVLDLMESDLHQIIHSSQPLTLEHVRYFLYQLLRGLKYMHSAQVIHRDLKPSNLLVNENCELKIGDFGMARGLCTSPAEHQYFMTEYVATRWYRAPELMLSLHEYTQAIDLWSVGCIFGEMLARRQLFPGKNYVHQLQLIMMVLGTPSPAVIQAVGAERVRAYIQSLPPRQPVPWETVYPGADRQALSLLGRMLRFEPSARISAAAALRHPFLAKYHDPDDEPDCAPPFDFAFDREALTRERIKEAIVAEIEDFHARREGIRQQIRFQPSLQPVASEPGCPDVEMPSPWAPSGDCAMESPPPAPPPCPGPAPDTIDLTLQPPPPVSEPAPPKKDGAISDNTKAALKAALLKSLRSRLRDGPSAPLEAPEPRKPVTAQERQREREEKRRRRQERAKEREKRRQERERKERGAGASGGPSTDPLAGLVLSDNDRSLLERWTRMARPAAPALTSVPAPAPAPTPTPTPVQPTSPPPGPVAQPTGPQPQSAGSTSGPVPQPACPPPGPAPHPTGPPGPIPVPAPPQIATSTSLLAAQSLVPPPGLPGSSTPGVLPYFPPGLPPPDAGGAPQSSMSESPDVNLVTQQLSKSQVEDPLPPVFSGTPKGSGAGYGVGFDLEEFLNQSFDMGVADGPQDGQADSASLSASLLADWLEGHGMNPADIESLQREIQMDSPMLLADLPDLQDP
T2 sequence (Q13554 whole entry): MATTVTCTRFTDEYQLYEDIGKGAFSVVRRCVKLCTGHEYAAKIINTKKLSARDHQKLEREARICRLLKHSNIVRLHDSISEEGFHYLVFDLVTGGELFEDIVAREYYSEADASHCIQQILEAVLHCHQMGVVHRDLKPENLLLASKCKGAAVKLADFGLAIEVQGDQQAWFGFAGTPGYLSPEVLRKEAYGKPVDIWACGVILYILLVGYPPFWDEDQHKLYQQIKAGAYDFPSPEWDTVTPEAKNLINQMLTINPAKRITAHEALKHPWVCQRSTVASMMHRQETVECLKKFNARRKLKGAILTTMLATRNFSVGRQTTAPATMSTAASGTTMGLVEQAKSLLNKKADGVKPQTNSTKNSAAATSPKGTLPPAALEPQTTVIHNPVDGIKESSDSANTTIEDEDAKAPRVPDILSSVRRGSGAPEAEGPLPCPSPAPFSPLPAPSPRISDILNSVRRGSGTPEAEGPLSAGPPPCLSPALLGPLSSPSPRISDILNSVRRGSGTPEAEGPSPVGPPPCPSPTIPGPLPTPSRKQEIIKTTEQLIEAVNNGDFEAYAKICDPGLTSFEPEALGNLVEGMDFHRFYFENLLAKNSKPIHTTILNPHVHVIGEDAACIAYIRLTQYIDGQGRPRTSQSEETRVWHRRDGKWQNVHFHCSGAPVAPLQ

On to `C=CC(=O)Nc1cccc(Nc2nc(Nc3ccc(OCCOC)c(F)c3)ncc2F)c1` [Compound 2], for which the inhibition at 3 µM on TYK2 was 52.6%; against CAMK2b, 3.89%; at CDK2/cyclin E, 10%; on LCK2/ICK, 1.98%; against ERK5/MAPK7, -0.37%; against EPHB3 it was 1.31%. Moreover, the remaining activity at 3 µM on TYK2 (setting [1]) was 48.2%; on TYK2 (setting [2]), 46.6%; at CAMK2b (setting [1]), 96.4%; on CAMK2b (setting [2]), 95.8%; on CDK2/cyclin E (setting [1]) it was 87.9%; at CDK2/cyclin E (setting [2]), 92%. The remaining activity at 3 µM at LCK2/ICK (setting [1]) was found to be 101%; on LCK2/ICK (setting [2]) it was 95.1%; at ERK5/MAPK7 (setting [1]), 101%; at ERK5/MAPK7 (setting [2]), 99.9%; on EPHB3 (setting [1]) it was 99.2%; at EPHB3 (setting [2]), 98.2%.

By inhibition is commonly meant the drop in the measured response relative to a control, in per cent.
